Values joined by “and” are separate entries in the source; they are usually repeats but may differ in a detail not shown here. Equal entries are not always repeated. Toxic doses and inconclusive results are not listed. Rule as the data show it: active = T/C of 150% or more; inactive = T/C below 125%.
Tested on: L1210 leukemia ip in BDF1 mice, survival T/C
Experiment: NCI In Vivo Anticancer Drug Screen. Data for tumor model L1210 Leukemia (intraperitoneal) in B6D2F1 (BDF1) mice
Conditions: endpoint: mean survival time, higher = longer survival
Procedure, shortened: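 Transplanted-tumor mice were given test agent; controls received vehicle only. Survival readings from the two groups were divided (treated over control).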

[1] = dose: 100.0 mg/kg/injection, schedule: Q04DX002 (ip), vehicle: Klucel (hydroxypropylcellulose) (HPC)
[2] = dose: 200.0 mg/kg/injection, schedule: Q04DX002 (ip), vehicle: Klucel (hydroxypropylcellulose) (HPC)
[3] = dose: 100.0 mg/kg/injection, schedule: Q01DX009 (ip), vehicle: saline with Tween-80
[4] = dose: 200.0 mg/kg/injection, schedule: Q01DX009 (ip), vehicle: saline with Tween-80
[5] = dose: 400.0 mg/kg/injection, schedule: Q01DX001 (ip), vehicle: saline
[6] = dose: 100.0 mg/kg/injection, schedule: Q01DX001 (ip), vehicle: carboxymethylcellulose (CMC)
[7] = dose: 200.0 mg/kg/injection, schedule: Q01DX001 (ip), vehicle: carboxymethylcellulose (CMC)
[8] = dose: 400.0 mg/kg/injection, schedule: Q01DX001 (ip), vehicle: carboxymethylcellulose (CMC)
[9] = dose: 100.0 mg/kg/injection, schedule: Q01DX009 (ip), vehicle: Klucel (hydroxypropylcellulose) (HPC)
[10] = dose: 200.0 mg/kg/injection, schedule: Q01DX009 (ip), vehicle: Klucel (hydroxypropylcellulose) (HPC)
[11] = dose: 100.0 mg/kg/injection, schedule: Q01DX001 (ip), vehicle: Klucel (hydroxypropylcellulose) (HPC)
[12] = dose: 100.0 mg/kg/injection, schedule: Q04DX003 (ip), vehicle: Klucel (hydroxypropylcellulose) (HPC)
[13] = dose: 200.0 mg/kg/injection, schedule: Q01DX001 (ip), vehicle: Klucel (hydroxypropylcellulose) (HPC)
[14] = dose: 200.0 mg/kg/injection, schedule: Q04DX003 (ip), vehicle: Klucel (hydroxypropylcellulose) (HPC)
[15] = dose: 400.0 mg/kg/injection, schedule: Q01DX001 (ip), vehicle: Klucel (hydroxypropylcellulose) (HPC)
[16] = dose: 400.0 mg/kg/injection, schedule: Q04DX003 (ip), vehicle: Klucel (hydroxypropylcellulose) (HPC)
[17] = dose: 50.0 mg/kg/injection, schedule: Q01DX001 (ip), vehicle: carboxymethylcellulose (CMC)

Measured: T/C

O=C(O)c1c(Cl)n(-c2ccccc2)c2ccccc12
inactive: dose: 50.0 mg/kg/injection, schedule: Q04DX002 (ip), vehicle: Klucel (hydroxypropylcellulose) (HPC) 101 % of control | [1] 104 % of control | [2] 93 % of control

CSC(=N)c1cccc(OCCCOc2ccccc2)c1
inactive: dose: 25.0 mg/kg/injection, schedule: Q01DX009 (ip), vehicle: saline with Tween-80 94 % of control | dose: 50.0 mg/kg/injection, schedule: Q01DX009 (ip), vehicle: saline with Tween-80 90 % of control | [3] 90 % of control | [4] 88 % of control

O=C1c2ccccc2C(=O)c2c(O)c3c(c(O)c21)CCCC3OC1OC(CO)C(O)C(O)C1O (stereo unspecified)
inactive: [5] 91 % of control

O=C(O)Cc1ccc(NC(=O)NCCCl)cc1
inactive: [6] 87 % of control | [7] 98 % of control | [8] 93 % of control

CO[C@H]1C=CC2=CCN3CCC4=C(CC(=O)OC4)[C@]23C1
inactive: dose: 10.0 mg/kg/injection, schedule: Q01DX001 (ip), vehicle: saline 104 % of control | dose: 20.0 mg/kg/injection, schedule: Q01DX001 (ip), vehicle: saline 96 % of control

CCOC(=O)C(Cc1cc(C(C)(C)C)c(O)c(C(C)(C)C)c1)(NC=O)C(=O)OCC
inactive: dose: 50.0 mg/kg/injection, schedule: Q01DX009 (ip), vehicle: Klucel (hydroxypropylcellulose) (HPC) 103 % of control | [9] 100 % of control | [10] 96 % of control

ON=c1c2ccccc2c2ccccc2c2ccccc12
inactive: dose: 75.0 mg/kg/injection, schedule: Q04DX002 (ip), vehicle: gum acacia 109 % of control | dose: 150.0 mg/kg/injection, schedule: Q04DX002 (ip), vehicle: gum acacia 105 % of control | dose: 300.0 mg/kg/injection, schedule: Q04DX002 (ip), vehicle: gum acacia 105 % of control

CCN(CC)c1ccc(/C=C\C(=O)c2ccccc2)cc1
inactive: [9] 97 % of control | [10] 100 % of control | dose: 400.0 mg/kg/injection, schedule: Q01DX009 (ip), vehicle: Klucel (hydroxypropylcellulose) (HPC) 100 % of control

CSCC(C(N)=O)c1cc(Cl)ccc1Cl (stereo unspecified)
inactive: [11] 107 % of control | dose: 100.0 mg/kg/injection, schedule: Q01DX009 (ip), vehicle: water 100 % of control | [12] 102 % of control | dose: 100.0 mg/kg/injection, schedule: Q04DX003 (ip), vehicle: water 100 % of control | [13] 103 % of control | dose: 200.0 mg/kg/injection, schedule: Q01DX009 (ip), vehicle: water 94 % of control | [14] 104 % of control | dose: 200.0 mg/kg/injection, schedule: Q04DX003 (ip), vehicle: water 100 % of control | [15] 102 % of control | dose: 400.0 mg/kg/injection, schedule: Q01DX009 (ip), vehicle: water 94 % of control | [16] 96 % of control | dose: 400.0 mg/kg/injection, schedule: Q04DX003 (ip), vehicle: water 90 % of control

COC(=O)C1C(=C(c2ccccc2)c2ccccc2)C1c1ccccc1 (stereo unspecified)
inactive: dose: 75.0 mg/kg/injection, schedule: Q04DX003 (ip), vehicle: Klucel (hydroxypropylcellulose) (HPC) 96 % of control | [11] 95 % of control | dose: 100.0 mg/kg/injection, schedule: Q01DX001 (ip), vehicle: steriod suspending solution 93 % of control | dose: 150.0 mg/kg/injection, schedule: Q04DX003 (ip), vehicle: Klucel (hydroxypropylcellulose) (HPC) 94 % of control | [13] 95 % of control | dose: 200.0 mg/kg/injection, schedule: Q01DX001 (ip), vehicle: steriod suspending solution 98 % of control | dose: 300.0 mg/kg/injection, schedule: Q04DX003 (ip), vehicle: Klucel (hydroxypropylcellulose) (HPC) 100 % of control | [15] 103 % of control | dose: 400.0 mg/kg/injection, schedule: Q01DX001 (ip), vehicle: steriod suspending solution 95 % of control

Nc1ccn(C2OC(CO)C(OP(=O)(O)O)C2O)c(=O)n1 (stereo unspecified)
inactive: dose: 40.0 mg/kg/injection, schedule: Q01DX001 (ip), vehicle: water 102 % of control | dose: 80.0 mg/kg/injection, schedule: Q01DX001 (ip), vehicle: water 97 % of control

CCOC(=O)NN(C)c1c(C)cccc1C
inactive: dose: 50.0 mg/kg/injection, schedule: Q01DX001 (ip), vehicle: Klucel (hydroxypropylcellulose) (HPC) 96 % of control | [11] 106 % of control | [13] 104 % of control

O=S(=O)(Sc1ccc(N(CCCl)CCCl)cc1)c1ccc(N(CCCl)CCCl)cc1
inactive: [17] 109 % of control | [6] 100 % of control | [7] 117 % of control | [8] 109 % of control

COc1ccc(CNC(C)(C)CO)c(OC)c1
inactive: dose: 75.0 mg/kg/injection, schedule: Q01DX001 (ip), vehicle: saline 101 % of control | dose: 150.0 mg/kg/injection, schedule: Q01DX001 (ip), vehicle: saline 102 % of control | dose: 300.0 mg/kg/injection, schedule: Q01DX001 (ip), vehicle: saline 98 % of control

CCCCCCCCCCCCCCCCCC[N+]1(CC)CCOCC1
inactive: dose: 3.13 mg/kg/injection, schedule: Q04DX002 (ip), vehicle: carboxymethylcellulose (CMC) 103 % of control and 87 % of control | dose: 6.25 mg/kg/injection, schedule: Q01DX001 (ip), vehicle: carboxymethylcellulose (CMC) 101 % of control | dose: 6.25 mg/kg/injection, schedule: Q01DX009 (ip), vehicle: carboxymethylcellulose (CMC) 93 % of control and 95 % of control | dose: 6.25 mg/kg/injection, schedule: Q04DX002 (ip), vehicle: carboxymethylcellulose (CMC) 100 % of control and 92 % of control | dose: 6.25 mg/kg/injection, schedule: Q04DX003 (ip), vehicle: carboxymethylcellulose (CMC) 98 % of control | dose: 12.5 mg/kg/injection, schedule: Q01DX001 (ip), vehicle: carboxymethylcellulose (CMC) 94 % of control | dose: 12.5 mg/kg/injection, schedule: Q01DX009 (ip), vehicle: carboxymethylcellulose (CMC) 93 % of control and 89 % of control | dose: 12.5 mg/kg/injection, schedule: Q04DX003 (ip), vehicle: carboxymethylcellulose (CMC) 100 % of control | dose: 25.0 mg/kg/injection, schedule: Q01DX001 (ip), vehicle: carboxymethylcellulose (CMC) 90 % of control | dose: 25.0 mg/kg/injection, schedule: Q04DX002 (ip), vehicle: carboxymethylcellulose (CMC) 94 % of control and 92 % of control | dose: 25.0 mg/kg/injection, schedule: Q04DX003 (ip), vehicle: carboxymethylcellulose (CMC) 89 % of control

Cc1nn2cnnc2s1
inactive: dose: 50.0 mg/kg/injection, schedule: Q01DX001 (ip), vehicle: saline 98 % of control | dose: 100.0 mg/kg/injection, schedule: Q01DX001 (ip), vehicle: saline 101 % of control | dose: 200.0 mg/kg/injection, schedule: Q01DX001 (ip), vehicle: saline 98 % of control | [5] 101 % of control

CC(C)(C)N1C=C(c2ccccc2)N=CC1(c1ccccc1)C(C)(C)C (stereo unspecified)
inactive: dose: 50.0 mg/kg/injection, schedule: Q04DX002 (ip), vehicle: saline with Tween-80 99 % of control | [1] 92 % of control | dose: 100.0 mg/kg/injection, schedule: Q04DX002 (ip), vehicle: saline with Tween-80 99 % of control | [2] 100 % of control | dose: 200.0 mg/kg/injection, schedule: Q04DX002 (ip), vehicle: saline with Tween-80 99 % of control | dose: 400.0 mg/kg/injection, schedule: Q04DX002 (ip), vehicle: Klucel (hydroxypropylcellulose) (HPC) 103 % of control

CCCCC(=O)N/N=C\c1ccc(N(CC)CC)cc1
inactive: [6] 95 % of control | [7] 87 % of control | [8] 87 % of control

O=C(O)/C=C/c1ccc(Cl)cc1Cl
inactive: [3] 88 % of control | [4] 87 % of control

CCCCCCCCCCCCC/C=C\CC(CC(=O)O)C(=O)Nc1cccc2cnccc12 (stereo unspecified)
inactive: [12] 97 % of control | [14] 103 % of control | [16] 97 % of control

CC1(N2CCCC2)CCCCC1
inactive: [17] 94 % of control | [6] 99 % of control

O=C(N/N=C\c1cc(Cl)ccc1[N+](=O)[O-])c1ccccc1
inactive: [12] 97 % of control | [14] 97 % of control | [16] 103 % of control

COc1ccc(CC(C)=O)cc1
inactive: dose: 50.0 mg/kg/injection, schedule: Q04DX003 (ip), vehicle: saline 96 % of control | dose: 100.0 mg/kg/injection, schedule: Q04DX003 (ip), vehicle: saline 105 % of control

Reference: PubChem BioAssay AID248 (DTP/NCI, 2004)
